According to patent US9012489B2, “Phenyl-3-aza-bicyclo[3.1.0]hex-3-yl-methanones and the use thereof as medicament” (Boehringer Ingelheim International GmbH, priority 2011, dated 2015):

Target: T1, GlyT1 transporter (Homo sapiens, UniProt P48067)
T1 construct: endogenously expressing the GlyT1 transporter; host or cells: SK-N-MC human neuroblastoma cells
T1 sequence (P48067 1-706): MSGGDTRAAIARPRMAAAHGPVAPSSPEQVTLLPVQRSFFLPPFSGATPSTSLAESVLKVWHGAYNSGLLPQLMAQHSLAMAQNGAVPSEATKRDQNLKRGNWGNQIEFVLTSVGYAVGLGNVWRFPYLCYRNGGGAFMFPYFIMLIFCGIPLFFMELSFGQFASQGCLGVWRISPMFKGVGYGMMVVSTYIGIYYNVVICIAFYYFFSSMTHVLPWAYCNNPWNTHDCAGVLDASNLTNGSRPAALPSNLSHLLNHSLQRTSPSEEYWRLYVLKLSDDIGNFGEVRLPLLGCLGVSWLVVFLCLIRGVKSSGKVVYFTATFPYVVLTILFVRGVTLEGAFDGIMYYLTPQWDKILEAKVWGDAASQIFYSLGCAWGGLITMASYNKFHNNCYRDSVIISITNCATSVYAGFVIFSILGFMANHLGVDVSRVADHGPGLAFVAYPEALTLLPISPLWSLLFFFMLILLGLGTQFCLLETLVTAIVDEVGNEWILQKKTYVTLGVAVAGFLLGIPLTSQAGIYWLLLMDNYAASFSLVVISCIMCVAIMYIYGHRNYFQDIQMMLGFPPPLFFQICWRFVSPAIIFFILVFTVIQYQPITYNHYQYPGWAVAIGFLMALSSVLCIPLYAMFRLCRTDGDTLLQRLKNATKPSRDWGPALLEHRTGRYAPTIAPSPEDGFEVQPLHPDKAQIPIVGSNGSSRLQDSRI
Assay: GlyT1 assay: 3H-glycine uptake into SK-N-MC cells (Cytostar-T format)
Type: cell-based
Settings: glycine uptake in human SK-N-MC cells endogenously expressing GlyT1; 500 nM glycine, 1% DMSO, signal recorded over 60 min
Procedure, shortened: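 Uptake slopes, measured over 60 min from the linear kinetic range, give IC50 from 8 compound concentrations, with 10 μM RG-1678 setting background. Substrate is 500 nM glycine (250 nM ³H, 250 nM unlabelled) in HBSS/5 mM alanine, 1% DMSO, after roughly 5-10 min compound preincubation. Cells: confluent SK-N-MC endogenously expressing human GlyT1.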

Row | IC50 | SMILES
1 | 155 nM | C[C@@H](Oc1ccc(S(C)(=O)=O)cc1C(=O)N1CC2CC2(c2noc(C3(C(F)(F)F)CC3)n2)C1)C(F)(F)F (single isomer, unassigned) [Example 70, [5-Methanesulfonyl-2-(2,2,2-trifluoro-1-methyl-ethoxy)-phenyl]-{1-[5-(1-trifluoromethyl-cyclopropyl)-[1,2,4]oxadiazol-3-yl]-3-aza-bicyclo[3.1.0]hex-3-yl}-methanone]
2 | 110 nM | CCS(=O)(=O)c1ccc(O[C@@H](C)C(F)(F)F)c(C(=O)N2CC3CC3(c3nccc(C(F)(F)F)n3)C2)c1 (single isomer, unassigned) [Example 75, [5-Ethanesulfonyl-2-(2,2,2-trifluoro-1-methyl-ethoxy)-phenyl]-[1-(4-trifluoromethyl-pyrimidin-2-yl)-3-aza-bicyclo[3.1.0]hex-3-yl]-methanone]
3 | 113 nM | CCS(=O)(=O)c1ccc(O[C@H](C)C(F)(F)F)c(C(=O)N2CC3CC3(c3nccc(C(F)(F)F)n3)C2)c1 (single isomer, unassigned) [Example 77, [5-Ethanesulfonyl-2-(2,2,2-trifluoro-1-methyl-ethoxy)-phenyl]-[1-(4-trifluoromethyl-pyrimidin-2-yl)-3-aza-bicyclo[3.1.0]hex-3-yl]-methanone]
4 | 7 nM | CCS(=O)(=O)c1ccc(O[C@H](C)C(F)(F)F)c(C(=O)N2CC3CC3(c3nccc(C(F)(F)F)n3)C2)c1 (single isomer, unassigned) [Example 78, [5-Ethanesulfonyl-2-(2,2,2-trifluoro-1-methyl-ethoxy)-phenyl]-[1-(4-trifluoromethyl-pyrimidin-2-yl)-3-aza-bicyclo[3.1.0]hex-3-yl]-methanone]
5 | 16 nM | C[C@H](Oc1ccc(S(C)(=O)=O)cc1C(=O)N1CC2CC2(c2nc(C(F)(F)F)no2)C1)C(F)(F)F (single isomer, unassigned) [Example 84, [5-Methanesulfonyl-2-(2,2,2-trifluoro-1-methyl-ethoxy)-phenyl]-[1-(3-trifluoromethyl-[1,2,4]oxadiazol-5-yl)-3-aza-bicyclo[3.1.0]hex-3-yl]-methanone]
6 | 20 nM | C[C@@H](Oc1ccc(S(C)(=O)=O)cc1C(=O)N1CC2CC2(c2nc(C(F)(F)F)no2)C1)C(F)(F)F (single isomer, unassigned) [Example 86, [5-Methanesulfonyl-2-(2,2,2-trifluoro-1-methyl-ethoxy)-phenyl]-[1-(3-trifluoromethyl-[1,2,4]oxadiazol-5-yl)-3-aza-bicyclo[3.1.0]hex-3-yl]-methanone]
7 | 2360 nM | C[C@@H](Oc1ccc(S(C)(=O)=O)cc1C(=O)N1CC2CC2(c2nc(C(F)(F)F)no2)C1)C(F)(F)F (single isomer, unassigned) [Example 87, [5-Methanesulfonyl-2-(2,2,2-trifluoro-1-methyl-ethoxy)-phenyl]-[1-(3-trifluoromethyl-[1,2,4]oxadiazol-5-yl)-3-aza-bicyclo[3.1.0]hex-3-yl]-methanone]
8 | 7 nM | CCS(=O)(=O)c1ccc(O[C@@H](C)C(F)(F)F)c(C(=O)N2CC3CC3(c3cc(C(F)(F)F)on3)C2)c1 (single isomer, unassigned) [Example 103, [5-Ethanesulfonyl-2-(2,2,2-trifluoro-1-methyl-ethoxy)-phenyl]-[1-(5-trifluoromethyl-isoxazol-3-yl)-3-aza-bicyclo[3.1.0]hex-3-yl]-methanone]
9 | 292 nM | CCS(=O)(=O)c1ccc(O[C@@H](C)C(F)(F)F)c(C(=O)N2CC3CC3(c3cc(C(F)(F)F)on3)C2)c1 (single isomer, unassigned) [Example 104, [5-Ethanesulfonyl-2-(2,2,2-trifluoro-1-methyl-ethoxy)-phenyl]-[1-(5-trifluoromethyl-isoxazol-3-yl)-3-aza-bicyclo[3.1.0]hex-3-yl]-methanone]
10 | 248 nM | CCS(=O)(=O)c1ccc(O[C@H](C)C(F)(F)F)c(C(=O)N2CC3CC3(c3cc(C(F)(F)F)on3)C2)c1 (single isomer, unassigned) [Example 106, [5-Ethanesulfonyl-2-(2,2,2-trifluoro-1-methyl-ethoxy)-phenyl]-[1-(5-trifluoromethyl-isoxazol-3-yl)-3-aza-bicyclo[3.1.0]hex-3-yl]-methanone]
11 | 5 nM | CCS(=O)(=O)c1ccc(O[C@H](C)C(F)(F)F)c(C(=O)N2CC3CC3(c3cc(C(F)(F)F)on3)C2)c1 (single isomer, unassigned) [Example 107, [5-Ethanesulfonyl-2-(2,2,2-trifluoro-1-methyl-ethoxy)-phenyl]-[1-(5-trifluoromethyl-isoxazol-3-yl)-3-aza-bicyclo[3.1.0]hex-3-yl]-methanone]
12 | 257 nM | CC(C)Oc1ccc(S(C)(=O)=O)cc1C(=O)N1CC2CC2(c2nc(C(F)(F)F)co2)C1 (single isomer, unassigned) [Example 111, (2-Isopropoxy-5-methanesulfonyl-phenyl)-[1-(4-trifluoromethyl-oxazol-2-yl)-3-aza-bicyclo[3.1.0]hex-3-yl]-methanone]
13 | 171 nM | C[C@@H](Oc1ccc(S(C)(=O)=O)cc1C(=O)N1CC2CC2(c2nc(C(F)(F)F)co2)C1)C(F)(F)F (single isomer, unassigned) [Example 114, [5-Methanesulfonyl-2-(2,2,2-trifluoro-1-methyl-ethoxy)-phenyl]-[1-(4-trifluoromethyl-oxazol-2-yl)-3-aza-bicyclo[3.1.0]hex-3-yl]-methanone]

Further lines, the compound ahead of its results:

Row | SMILES | IC50
14 | CCS(=O)(=O)c1ccc(O[C@@H](C)C(F)(F)F)c(C(=O)N2CC3CC3(c3nccc(C(F)(F)F)n3)C2)c1 (single isomer, unassigned) [Example 74, [5-Ethanesulfonyl-2-(2,2,2-trifluoro-1-methyl-ethoxy)-phenyl]-[1-(4-trifluoromethyl-pyrimidin-2-yl)-3-aza-bicyclo[3.1.0]hex-3-yl]-methanone] | 4 nM
15 | C[C@@H](Oc1ccc(S(C)(=O)=O)cc1C(=O)N1CC2CC2(c2coc(C3CC3)n2)C1)C(F)(F)F (single isomer, unassigned) [Example 82] | 782 nM
16 | C[C@@H](Oc1ccc(S(C)(=O)=O)cc1C(=O)N1CC2CC2(c2coc(C3CC3)n2)C1)C(F)(F)F (single isomer, unassigned) [Example 83] | 3 nM
17 | C[C@H](Oc1ccc(C#N)cc1C(=O)N1CC2CC2(c2noc(C(F)(F)F)n2)C1)C(F)(F)F (single isomer, unassigned) [Example 89, 4-(2,2,2-Trifluoro-1-methyl-ethoxy)-3-[1-(5-trifluoromethyl-[1,2,4]oxadiazol-3-yl)-3-aza-bicyclo[3.1.0]hexane-3-carbonyl]-benzonitrile] | 97 nM
18 | C[C@H](Oc1ccc(C#N)cc1C(=O)N1CC2CC2(c2noc(C(F)(F)F)n2)C1)C(F)(F)F (single isomer, unassigned) [Example 90, 4-(2,2,2-Trifluoro-1-methyl-ethoxy)-3-[1-(5-trifluoromethyl-[1,2,4]oxadiazol-3-yl)-3-aza-bicyclo[3.1.0]hexane-3-carbonyl]-benzonitrile] | 2250 nM
19 | CCS(=O)(=O)c1ccc(O[C@H](C)C(F)(F)F)c(C(=O)N2CC3CC3(c3noc(C(F)(F)F)n3)C2)c1 (single isomer, unassigned) [Example 93, [5-Ethanesulfonyl-2-(2,2,2-trifluoro-1-methyl-ethoxy)-phenyl]-[1-(5-trifluoromethyl-[1,2,4]oxadiazol-3-yl)-3-aza-bicyclo[3.1.0]hex-3-yl]-methanone] | 11 nM
20 | CCS(=O)(=O)c1ccc(O[C@H](C)C(F)(F)F)c(C(=O)N2CC3CC3(c3noc(C(F)(F)F)n3)C2)c1 (single isomer, unassigned) [Example 94, [5-Ethanesulfonyl-2-(2,2,2-trifluoro-1-methyl-ethoxy)-phenyl]-[1-(5-trifluoromethyl-[1,2,4]oxadiazol-3-yl)-3-aza-bicyclo[3.1.0]hex-3-yl]-methanone] | 2910 nM
21 | CC(C)Oc1ccc(S(C)(=O)=O)cc1C(=O)N1CC2CC2(c2noc(C(F)(F)F)n2)C1 (single isomer, unassigned) [Example 97, (2-Isopropoxy-5-methanesulfonyl-phenyl)-[1-(5-trifluoromethyl-[1,2,4]oxadiazol-3-yl)-3-aza-bicyclo[3.1.0]hex-3-yl]-methanone] | 8 nM
22 | CC(C)Oc1ccc(S(C)(=O)=O)cc1C(=O)N1CC2CC2(c2noc(C(F)(F)F)n2)C1 (single isomer, unassigned) [Example 98, (2-Isopropoxy-5-methanesulfonyl-phenyl)-[1-(5-trifluoromethyl-[1,2,4]oxadiazol-3-yl)-3-aza-bicyclo[3.1.0]hex-3-yl]-methanone] | 1890 nM
